In patent US20260116928A1, “COMPOSITIONS AND PARTICLES FOR PAYLOAD DELIVERY” (Thornhill Therapeutics, Inc., priority 2019, published 2026):

Experiment: Glucose challenge model
Assay type: in vivo, male CD1 mice
Details: mice, IP glucose challenge; 10 μg IP injection
Source text: The glucose challenge model used to test SEQ ID NO: 70-Exenatide was designed to examine the capacity of a GLP-1-like activity to enhance the rate of recovery from a glucose excursion.
The male CD1 mice used in the glucose challenge test were 9-16 weeks of age. To minimize stress due to handling, animals were acclimatized to the environment, blood sampling, and dosing procedures for 1 week prior to the start of experiments, as plasma glucose can be responsive to handling stress. Mice were fasted for 18 h prior to study. […] Blood samples were taken at t=0, 15, 30, 45, 60 min; 2, 3, and 4 hr. Blood glucose measurements were made using 5 μL blood sample taken from the tail with a commercial glucometer that was calibrated with glucose standards prior to the start of the study.

Exenatide (1-40)-Gly
time at which correction of the blood glucose excursion began: 15 min | time by which the correction profile was completed: ≤ 120 min
